Assay results reported in patent US11382929B2, “Compositions and methods to treat disease” (REGENTS OF THE UNIVERSITY OF MINNESOTA, priority 2019, dated 2022).
“Also recorded” adds a separate entry of the source. Each block holds one molecule with its values, some of them ahead of it.

Assays:
[1] = system: EMT-6 tumors; assay: In vivo EMT-6 tumor model, anti-tumor effect; set-up: species or system Balb/C mice; conditions: 8 mice per group, charge ratios 1, 4, 16 (low, med, high heparin dose) or equivalent heparin alone
[2] = system: AsPC-1 cells; assay: PAHM+Dox cytotoxicity assay (MTT); assay type: cell-based, human; conditions: AsPC-1, PAHM and Dox used in combination
Procedure: AsPC-1 or EMT6 cells were plated at 5000 cells/well (in 100 μL phenol red free medium) in 96-well plates. After culturing overnight (˜20 h), the medium was removed, and 100 μL medium containing various concentrations of PAHM and/or Dox was added to the cells. AsPC-1 cells were exposed to 1-100 μg/mL PAHM, 1-100 μg/mL Dox, or combinations of PAHM and Dox at a 1:1 ratio. EMT6 cells were exposed to 1-100 μg/mL PAHM, 0.02-2 μg/mL Dox, or combinations of PAHM and Dox at a 50:1 ratio. After 24 h exposure, the PAHM and Dox solutions were removed and 100 μL phenol red free medium was added to the cells. Cell viability was measured using an MTT assay. To each well, 10 μL MTT solution (12 mM in PBS) was added. After 4 h, 85 μL was removed from each well and formazan was solubilized in 100 μL dimethyl sulfoxide (DMSO). Absorbance was measured at 540 nm using a plate reader (BioTek™ Cytation™ 3 Cell Imaging Multi-Mode Reader controlled by Gen5™ All-In-One Microplate Reader Software). Data was analyzed in Microsoft Excel and Combination Indices and Dose Reduction Indices were calculated using CompuSyn (ComboSyn, Inc.)

[3] = system: T98G; assay: MTT cytotoxicity in 2D monolayer cell culture; assay type: cell-based; conditions: Homo sapiens, 24 h treatment
Procedure: (§1) Cytotoxicity in 2D Monolayer Cell Culture A mouse breast cancer cell line EMT-6 (ATCC, Manassas, Va.), two human breast cancer cell lines MDA-MB-231(ATCC) and MCF-7(ATCC), and one human glioma cancer cell line T98G(ATCC) were used in standard MTT assays (T. Mosmann, J Immunol Methods 65(1-2) (1983) 55-63) to test the cytotoxicity of PAHM polymers with different molecular weight and concentration after 24 and 48 h of treatment. D ox-HCl was also tested for comparison. All of the four cancer cell lines were incubated in corresponding cell culture media, EMT-6 media (DMEM high glucose, 10% FBS, 100 U/mL penicillin/streptomycin), T98G and MDA-MB-231 media (DMEM low glucose, 10% FBS, 100 U/mL penicillin/streptomycin), MCF-7 media (DMEM low glucose, 10% FBS, insulin, 100 U/mL penicillin/streptomycin), at 37° C., and a humidified atmosphere containing 5% CO2.
(§2) The MTT assay of PAHM polymers and Dox-HCl on EMT-6 cells exemplified the general experimental procedures. EMT-6 cells were seeded into 96-well plates at 5000 cells/well and cultured for 20 h in EMT-6 media at 5% CO2 and 37° C. Afterwards polymers of various molecular weight and concentrations were added to the cells and cultured for 24 h or 48 h. MTT in PBS (5 mg/mL, 20 μL) was then added to each well, reaching a final concentration of 0.5 mg/mL. After 4 h, unreacted MTT was removed by aspiration. The formazan crystals were dissolved in 150 μL of DMSO, and the absorbance was measured at 570 nm using a Bio-Tek Synergy HT plate reader. Cell viability was calculated by [absorbance of cells exposed to polymers]/[absorbance of cells cultured without polymers] in percentage. Cell images were captured before MTT was added using an Olympus IX70 […] microscope under polarized light.

[4] = system: EMT-6; assay: MTT cytotoxicity in 2D monolayer cell culture; assay type: cell-based; conditions: Mus musculus, EMT6
Procedure: as §1, §2

[5] = system: erythrocytes (RBC); assay: Hemolysis; assay type: cell-based, mouse; conditions: complex of the anionic polymer with PAHM, data not shown
[6] = Particle size of complexes by dynamic light scattering; assay type: physicochemical; conditions: complex of the anionic polymer with PAHM
Procedure: Heparin (sodium salt) was mixed with PAHM in 20 mM HEPES buffer (pH 7.4) and incubated for 30 minutes at room temperature. The charge ratio of heparin and PAHM was adjusted based on the assumption that one repeating unit of PAHM (Mw 325.88) bears 1 mole of positive charge (approximately the same number of primary amino groups) and that one repeating unit of heparin (Mw 1471) carries 8 moles of negative charges (approximately the number of carboxylate and sulfate groups combined). The final PAHM concentration was kept constant as 0.1 mg/mL. To determine the average particle size of the nano-complexes, the heparin/PAHM mixtures were diluted 20 times to a final volume of 2 mL in HEPES buffer. The average hydrodynamic diameter (or particle size) in HEPES buffer (20 mM) at 25° C. were determined using a ZetaPlus Particle Analyzer (Brookhaven Instruments Corporation, Holtsville, N.Y.; 27 mW laser; 658 nm incident beam, 90° scattering angle). Nano-complexes with heparin/PAHM charge ratios ranging from 1 to 32 were prepared as described above and measured by DLS.

Molecule: heparin
tumor growth (tumor volume and weight) [1]: modest but insignificant effect on tumor growth

Molecule: COc1cccc2c1C(=O)c1c(O)c3c(c(O)c1C2=O)C[C@@](O)(C(=O)CO)C[C@@H]3O[C@H]1C[C@H](N)[C@H](O)[C@H](C)O1 [Dox, doxorubicin]
Dose Reduction Index (DRI) [2]: much higher; also recorded: All but one DRI values are above 1 | IC50 [3]: > 40 µg/mL | IC50 ([4]; EMT-6, 24 h treatment): 10 to 15 µg/mL | IC50 ([4]; EMT-6, 48 h): 5 µg/mL

particles formed with PAHM (size) [6]: nano to micro scale
Molecule: hyaluronic acid [HA]
hemolytic activity of PAHM in complexed form [5]: reduced, sometimes abolished
